This is an account of results in ChEMBL document CHEMBL5104094, “Chemistry, biosynthesis and biological activity of terpenoids and meroterpenoids in bacteria and fungi isolated from different marine habitats” (Eur J Med Chem, 2021).

Assay [1] concerns L1210. As to the kind of experiment: Antiproliferative activity against mouse L1210 cells assessed as inhibition of cell proliferation incubated for 48 hrs by Coulter counter method. Type of assay: functional, cell-based. Particulars: L1210, 48 h.
Assay [2] is described as follows: Antiproliferative activity against human IMC cells assessed as inhibition of cell proliferation incubated for 48 hrs by Coulter counter method. Type of assay: functional, cell-based.
Assay [3] has as its system Candida albicans. As to the kind of experiment: Antifungal activity against Candida albicans assessed as fungal growth inhibition by microbroth dilution method. In kind it is functional. (Dilution methods test growth across graded concentrations, often in twofold steps.)
Assay [4] concerns HCT-116. Description: Cytotoxicity against human HCT-116 cells assessed as cell growth inhibition by MTT assay. In kind it is functional, cell-based. (In general: Formazan colour is commonly taken as a measure of viable cells.)
In assay [5] the test system is SW-620. As to the kind of experiment: Antitumor activity against human SW620 cells xenografted in BALB/c nude mouse assessed as tumor growth inhibition at 10 mg/kg/day, ip for 28 days relative to control. In kind it is functional. To be noted: SW-620, 672 h, time 28 day, read-out: TGI. Background: In xenograft studies the graft and the host belong to different species.

Assay [6] relates to HL-60. As to the kind of experiment: Cytotoxicity against human HL-60 cells assessed as cell growth inhibition. Type of assay: functional, cell-based.
Assay [7] has as its system Bel-7402. As to the kind of experiment: Cytotoxicity against human Bel-7402 cells assessed as cell growth inhibition. In kind it is functional, cell-based.
For assay [8], the target named is Phosphotyrosine-protein phosphatase PTPB (Mycobacterium tuberculosis, UniProt P96830). As to the kind of experiment: Inhibition of N-terminal His6-tagged full-length Mycobacterium tuberculosis H37Rv PTPB expressed in Escherichia coli BL21 (DH3) using fluorogenic phosphatase substrate by fluorescence based assay.
The test system of assay [9] is NSCLC. As to the kind of experiment: Cytotoxicity against human NSCLC cells assessed as cell growth inhibition incubated for 96 hrs by Cell Titer Glo assay. In kind it is functional, cell-based.
In assay [10] the test system is NCI-H1395. As to the kind of experiment: Cytotoxicity against human NCI-H1395 cells assessed as cell growth inhibition incubated for 96 hrs by Cell Titer Glo assay. Type of assay: functional, cell-based. Particulars: NCI-H1395, 96 h.
Assay [11] has as its system HCC1395. Description: Cytotoxicity against human HCC1395 cells assessed as cell growth inhibition incubated for 96 hrs by Cell Titer Glo assay. Type of assay: functional, cell-based. Particulars: HCC1395, 96 h.
In assay [12] the test system is SF-268. Description: Cytotoxicity against human SF-268 cells assessed as cell growth inhibition incubated for 72 hrs by SRB assay. Type of assay: functional, cell-based. To be noted: SF-268, 72 h.
The test system of assay [13] is MCF7. As to the kind of experiment: Cytotoxicity against human MCF7 cells assessed as cell growth inhibition incubated for 72 hrs by SRB assay. In kind it is functional, cell-based. Particulars: MCF7, 72 h.
In assay [14] the test system is HepG2. As to the kind of experiment: Cytotoxicity against human HepG2 cells assessed as cell growth inhibition incubated for 72 hrs by SRB assay. Particulars: HepG2, 72 h. In kind it is functional, cell-based.
Assay [15] relates to A549. As to the kind of experiment: Cytotoxicity against human A549 cells assessed as cell growth inhibition incubated for 72 hrs by SRB assay. Type of assay: functional, cell-based. To be noted: A549, 72 h.
For assay [16], the target named is Tyrosine-protein phosphatase non-receptor type 1 (Homo sapiens, UniProt P18031). As to the kind of experiment: Inhibition of recombinant human PTP1B expressed in Escherichia coli using p-nitrophenyl phosphate as substrate preincubated for 15 mins followed by substrate addition measured after 60 mins by absorbance based assay.
The target in assay [17] is Tyrosine-protein phosphatase non-receptor type 2 (Homo sapiens, UniProt P17706). As to the kind of experiment: Inhibition of recombinant human TCPTP expressed in Escherichia coli using p-nitrophenyl phosphate as substrate preincubated for 15 mins followed by substrate addition measured after 60 mins by absorbance based assay.
Assay [18] concerns MDA-MB-435. Description: Antiproliferative activity against human MDA-MB-435 cells assessed as inhibition of cell proliferation incubated for 24 hrs by MTT assay. Particulars: MDA-MB-435, 24 h. In kind it is functional, cell-based.
The target of assay [19] is Androgen receptor (Homo sapiens, UniProt P10275). As to the kind of experiment: Displacement of [3H]-DHT from recombinant androgen receptor (unknown origin) incubated for 3 hrs by liquid scintillation counter method.
The nature of assay [20]: Cytotoxicity against human H7402 cells assessed as cell growth inhibition incubated for 24 hrs by MTT assay. Type of assay: functional, cell-based. Particulars: H7402, 24 h.

pIC50: −log10 of the molar value.

Tyrosine-protein phosphatase non-receptor type 1, sequence (P18031 whole entry): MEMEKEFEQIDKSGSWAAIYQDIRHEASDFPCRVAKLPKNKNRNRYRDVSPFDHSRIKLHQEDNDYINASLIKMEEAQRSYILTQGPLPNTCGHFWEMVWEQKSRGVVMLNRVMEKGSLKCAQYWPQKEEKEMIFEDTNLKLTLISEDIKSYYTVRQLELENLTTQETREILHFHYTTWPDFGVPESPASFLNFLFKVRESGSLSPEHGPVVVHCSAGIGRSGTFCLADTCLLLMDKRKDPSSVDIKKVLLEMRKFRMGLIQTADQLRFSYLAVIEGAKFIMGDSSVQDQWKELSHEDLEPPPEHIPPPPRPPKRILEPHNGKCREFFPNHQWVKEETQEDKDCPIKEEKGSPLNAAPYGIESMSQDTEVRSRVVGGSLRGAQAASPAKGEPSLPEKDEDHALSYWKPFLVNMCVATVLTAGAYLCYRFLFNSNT
Tyrosine-protein phosphatase non-receptor type 2, sequence (P17706 whole entry): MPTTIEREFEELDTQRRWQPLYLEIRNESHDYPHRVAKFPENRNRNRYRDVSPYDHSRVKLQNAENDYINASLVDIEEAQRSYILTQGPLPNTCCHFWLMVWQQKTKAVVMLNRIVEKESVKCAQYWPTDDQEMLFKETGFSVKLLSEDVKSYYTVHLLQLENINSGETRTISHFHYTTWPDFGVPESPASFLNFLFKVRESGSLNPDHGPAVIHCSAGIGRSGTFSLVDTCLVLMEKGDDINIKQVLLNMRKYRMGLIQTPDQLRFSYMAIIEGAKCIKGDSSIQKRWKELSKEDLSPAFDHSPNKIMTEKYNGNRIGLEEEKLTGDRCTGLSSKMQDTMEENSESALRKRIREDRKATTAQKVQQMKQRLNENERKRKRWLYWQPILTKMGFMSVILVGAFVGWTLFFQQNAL
Phosphotyrosine-protein phosphatase PTPB, sequence (P96830 whole entry): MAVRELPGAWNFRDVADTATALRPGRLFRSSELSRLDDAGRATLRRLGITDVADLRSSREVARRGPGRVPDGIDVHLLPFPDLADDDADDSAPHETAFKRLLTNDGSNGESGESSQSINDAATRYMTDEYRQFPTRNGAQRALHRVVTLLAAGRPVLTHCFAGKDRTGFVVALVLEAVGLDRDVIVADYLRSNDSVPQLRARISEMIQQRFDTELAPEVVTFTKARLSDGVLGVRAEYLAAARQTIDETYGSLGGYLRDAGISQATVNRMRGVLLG
Androgen receptor, sequence (P10275 whole entry): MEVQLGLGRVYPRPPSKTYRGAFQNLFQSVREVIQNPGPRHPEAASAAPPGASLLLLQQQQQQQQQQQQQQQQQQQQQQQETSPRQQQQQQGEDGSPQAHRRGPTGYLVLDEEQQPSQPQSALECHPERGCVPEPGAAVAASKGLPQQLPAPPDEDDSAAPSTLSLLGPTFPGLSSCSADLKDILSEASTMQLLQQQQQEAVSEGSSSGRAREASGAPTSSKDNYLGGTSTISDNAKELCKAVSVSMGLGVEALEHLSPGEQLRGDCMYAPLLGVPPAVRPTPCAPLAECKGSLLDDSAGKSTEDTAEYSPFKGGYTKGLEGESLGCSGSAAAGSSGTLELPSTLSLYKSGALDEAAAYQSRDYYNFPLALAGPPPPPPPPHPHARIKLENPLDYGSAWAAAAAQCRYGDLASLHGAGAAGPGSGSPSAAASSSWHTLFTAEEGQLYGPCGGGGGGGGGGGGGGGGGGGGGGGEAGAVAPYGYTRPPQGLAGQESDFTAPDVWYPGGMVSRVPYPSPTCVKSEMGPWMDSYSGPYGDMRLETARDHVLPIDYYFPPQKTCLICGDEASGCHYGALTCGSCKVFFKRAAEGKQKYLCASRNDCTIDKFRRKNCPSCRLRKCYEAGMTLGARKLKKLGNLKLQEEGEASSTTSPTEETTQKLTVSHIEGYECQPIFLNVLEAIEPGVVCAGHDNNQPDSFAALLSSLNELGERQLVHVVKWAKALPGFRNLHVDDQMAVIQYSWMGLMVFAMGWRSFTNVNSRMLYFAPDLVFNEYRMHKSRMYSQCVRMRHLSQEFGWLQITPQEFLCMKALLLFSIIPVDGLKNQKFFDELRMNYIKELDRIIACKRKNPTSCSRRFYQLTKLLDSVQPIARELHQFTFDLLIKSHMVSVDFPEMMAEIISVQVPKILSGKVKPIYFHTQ

Regarding `CN1C=C(C(N)=O)[C@@H]2C[C@H](O)[C@@](NC(=O)CS(N)(=O)=O)(C(=O)O)[C@@H]2C1`, the pIC50 (as a rule, the negative decadic logarithm of the IC50, by convention in mol/L) in [1] is 6.08; in [2] it was 6.09.

As to `CC1=C(Cn2c3ccc(Br)c(=O)c-3nc3ccccc32)CCC(C)(C)C1`, the MIC (usually the lowest concentration that inhibits growth of the organism) in [3] is 0.95 µM. Moreover, the pIC50 in assay [4] is 7.31.

With `C=C1C(=O)C=C2C=C3[C@@H](O)C(C)(C)C[C@@]3(O)[C@]12C`, the inhibition in vivo at 10 mg/kg/day in [5] was 50%.

As for `C[C@@H]1C=CC(=O)[C@@]2(C)CC[C@@H]3[C@@H]4[C@@](C)(CC[C@@]4(C)CO)C[C@@]132`, the negative-log IC50 (pIC50) in assay [6] was 6.01; in assay [7], 7.42.

For `CC(C)[C@H]1CC[C@@]2(C)CC[C@]3(CO)CC4=C(C(=O)O)CC[C@H]4[C@]4(C)C[C@@H]4[C@H]3[C@H]12`, the pIC50 in assay [8] is 4.74.

`COc1cc2nc(C(=O)NCC(=O)O)sc2c(C/C=C(\C)CC/C=C(\C)CC/C=C(\C)CCC/C(C)=C\CC(=O)O)c1O`: the pIC50 in assay [9] was 5.82; in assay [10], 5.60; in [11] it was 5.17.

On to `C=C(C)[C@H]1CC=C(C)[C@H]2C[C@H]3Cc4c(C)cc(O)cc4O[C@@]3(C)C[C@H]12`, for which the pIC50 in [12], in assay [13], in assay [14] and in [15] was 4.70 throughout.

As for `CC1=CC[C@H](C(C)(C)O)[C@H]2C[C@]3(C)Oc4cc(O)cc(C)c4C[C@@H]3C[C@H]12`, the pIC50 in [12], in [13], in assay [14] and in assay [15] was 4.70 throughout.

In the case of `CC1(C)Oc2c(nc3c4c2C(=O)CC[C@]4(C)[C@@]2(C)c4[nH]c5ccccc5c4C[C@@H]2C3)[C@H]1O`, the pIC50 in assay [16] and in assay [17] was 5.77 each time.

For `CC(C)(O)[C@H]1OC2CC[C@@]3(C)[C@@](O)(CC[C@H]4C[C@]5(OCNc6ccccc65)C(=O)[C@@]43C)C2=CC1=O` (stereo partly specified), the pIC50 in assay [16] and in assay [17] was 5.77 throughout.

As to `COC(=O)N[C@H]1[C@@H](C)O[C@@H](O[C@H]2C/C=C(\C)[C@]3(C)CC[C@@H]4[C@@H](O[C@H]5C[C@@H](O[C@H]6C[C@@H](O)[C@@H](O[C@@H]7C[C@@H](O)[C@@H](OC)[C@H](C)O7)[C@H](C)O6)C[C@H](C)O5)[C@@H](C)C[C@H](C)[C@H]4[C@]3(C)C(=O)C3C(=O)OC4(C[C@@H](C)C(CO)=C[C@H]4/C=C/2C)C3=O)C[C@]1(C)N` (stereo partly specified), in assay [18], the pIC50 was 5.12.

For `C=C[C@@]1(C)CC[C@H]2C(C=C[C@H]3[C@H](CO)CC(=O)C[C@]23C)C1` (stereo partly specified), in assay [19], the pIC50 is 5.01.

Consider `COC(=O)N[C@H]1[C@@H](C)O[C@@H](O[C@H]2C/C=C(\C)[C@]3(C)CC[C@@H]4[C@@H](O[C@H]5C[C@@H](O[C@H]6C[C@@H](O)[C@@H](O[C@@H]7C[C@@H](O)[C@@H](OC)[C@H](C)O7)[C@H](C)O6)C[C@H](C)O5)[C@@H](C)C[C@H](C)[C@H]4[C@]3(C)C(=O)C3C(=O)OC4(C[C@@H](C)C(CO)=C[C@H]4/C=C/2C)C3=O)C[C@]1(C)[N+](=O)[O-]` (stereo partly specified), for which the pIC50 in [20] was 6.22.
